TGI and GI50 data for 15 compounds are collected here from PubChem BioAssay (NCI).

Some test systems named below: M14 melanoma; UACC-62 melanoma; SN12C renal; UO-31 renal; K-562 leukemia; MOLT-4 leukemia; TK-10 renal; NCI/ADR-RES ovarian; MCF7 breast.
What all share (experiment): NCI tumour cell line growth inhibition, 48 h

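Following 48 hours of exposure in 96-well plates, responses at five concentrations were used to interpolate endpoints linearly. Here, GI50 denotes the concentration required for 50% inhibition of growth. TGI marks complete inhibition of growth.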

On to `OCCCCCNc1ccnc2cc(Cl)ccc12`, for which the TGI with M14 melanoma was above 100 µM; in the assay on UACC-62 melanoma it was above 100 µM; in the assay on SN12C renal, above 100 µM; in the assay on UO-31 renal it was above 100 µM; in the assay with K-562 leukemia it was 64.7 µM; with MOLT-4 leukemia, above 100 µM.
As to `CC1(C)Oc2ccccc2[N+]([O-])=C1c1ccccc1`, the TGI in the assay with M14 melanoma, with UACC-62 melanoma, in the assay on SN12C renal, in the assay with UO-31 renal, in the assay with K-562 leukemia and with MOLT-4 leukemia was above 100 µM in each case.
Take `Nc1nc(CC2(O)CCCCC2)cc(-c2ccccc2)n1`: the TGI in the assay on M14 melanoma is above 31.6 µM; in the assay on UACC-62 melanoma, above 100 µM; in the assay on SN12C renal, 37.4 µM; with TK-10 renal it was above 100 µM; with UO-31 renal, above 91.6 µM; in the assay with K-562 leukemia, above 100 µM. The same compound came in with a TGI in the assay on MOLT-4 leukemia of 53.9 µM.
`COc1c(Cl)[c]([Hg][O]C(C)=O)c(NCC(C)=O)c(OC)[c]1[Hg][O]C(C)=O`: the GI50 with M14 melanoma was 14.7 µM; in the assay on SN12C renal, 20.8 µM; in the assay on TK-10 renal, 14.3 µM; in the assay on UO-31 renal it was 22 µM; in the assay with K-562 leukemia, 11.8 µM; with MOLT-4 leukemia, 17.1 µM. Further, the TGI is 28.6 µM in the assay with M14 melanoma; 36.3 µM in the assay with SN12C renal; 27.7 µM in the assay with TK-10 renal; 40 µM with UO-31 renal; above 100 µM with K-562 leukemia; 48.5 µM in the assay on MOLT-4 leukemia.
For `CCC(C)(C)NS(=O)(=O)c1ccccc1`, the TGI in the assay with M14 melanoma, with UACC-62 melanoma, in the assay on TK-10 renal, with UO-31 renal, in the assay on K-562 leukemia and in the assay with MOLT-4 leukemia was above 100 µM each time.
In the case of `N.N.NCCCCCN.O=C([O-])CC(=O)[O-].O=C([O-])CC(=O)[O-].[Pt+4].[Pt+4]`, the GI50 is above 100 µM in the assay on M14 melanoma; 18700 nM in the assay with UACC-62 melanoma; 45.6 µM in the assay with SN12C renal; above 100 µM in the assay with TK-10 renal; above 100 µM in the assay with UO-31 renal; above 100 µM in the assay with K-562 leukemia. The GI50 with MOLT-4 leukemia is 65.5 µM. The TGI in the assay with M14 melanoma, with UACC-62 melanoma, in the assay on SN12C renal, in the assay with TK-10 renal, with UO-31 renal and in the assay with K-562 leukemia was above 100 µM in each case. In the assay with MOLT-4 leukemia, this compound returned a TGI above 100 µM.
In the case of `CCOC(=O)NC(=O)c1cn(C2OC(COC(=O)CCCCCCCCC(=O)OCC3OC(n4cc(C(=O)NC(=O)OCC)c(=O)[nH]c4=O)C4OC(C)(C)OC34)C3OC(C)(C)OC32)c(=O)[nH]c1=O` (stereo not given), the TGI in the assay on M14 melanoma, with UACC-62 melanoma, in the assay with SN12C renal, with TK-10 renal, with UO-31 renal and in the assay on K-562 leukemia was above 100 µM in each case. The TGI in the assay with MOLT-4 leukemia is above 100 µM.
`CCN(CC)/[N+]([O-])=N/OCC(C)O` (stereo not given): the TGI in the assay with M14 melanoma, with UACC-62 melanoma, in the assay on SN12C renal, in the assay with TK-10 renal, in the assay with UO-31 renal and with K-562 leukemia was above 100 µM throughout. In the assay with MOLT-4 leukemia, this compound showed a TGI above 100 µM.
For `COc1cc2ccc3c4cc(OC)c(OC(C)C)cc4c[n+](C)c3c2cc1OC`, the TGI with M14 melanoma, in the assay with UACC-62 melanoma, in the assay on SN12C renal, in the assay with TK-10 renal, in the assay with UO-31 renal and with K-562 leukemia was above 100 µM each time. In addition, the TGI in the assay on MOLT-4 leukemia was above 100 µM.
Regarding `Cc1nc(-n2nc(-c3ccccc3)cc2-c2ccccc2)sc1C(=O)/C=C/c1ccc(Cl)cc1`, the TGI with UACC-62 melanoma was 28.7 µM; in the assay with SN12C renal it was above 100 µM; in the assay with TK-10 renal, above 100 µM; in the assay with UO-31 renal it was 21.1 µM; with MOLT-4 leukemia, 41 µM.
On to `Cc1nc2ccccc2c(/C=C/c2ccccc2)c1C(=O)/C=C/c1ccccc1`, for which the GI50 with UACC-62 melanoma is 1770 nM; with SN12C renal, 1.9 µM; in the assay with NCI/ADR-RES ovarian, 2710 nM; with TK-10 renal, 2.58 µM; with UO-31 renal, 1.33 µM; in the assay on K-562 leukemia, 2.84 µM. The TGI in the assay on UACC-62 melanoma is 3.23 µM; with SN12C renal, 4.07 µM; in the assay on NCI/ADR-RES ovarian it was 8.35 µM; in the assay with TK-10 renal, 6.81 µM; with UO-31 renal it was 2.61 µM; in the assay on K-562 leukemia, above 100 µM.
Regarding `O=C(Nc1ccc(N2CCNCC2)cn1)c1[nH]ncc1Nc1ncnc2sccc12`, the GI50 in the assay on M14 melanoma is 1.86 µM; in the assay with UACC-62 melanoma, 2600 nM; with SN12C renal, 4.27 µM; with NCI/ADR-RES ovarian, above 100000 nM; in the assay on MCF7 breast it was 1710 nM; in the assay with TK-10 renal it was 3.62 µM. The GI50 in the assay on UO-31 renal is 14.4 µM; in the assay on MOLT-4 leukemia, 1.99 µM. In addition, the TGI is 3.65 µM in the assay on M14 melanoma; 7.33 µM in the assay on UACC-62 melanoma; 18.8 µM with SN12C renal; above 100 µM in the assay on NCI/ADR-RES ovarian; 4.17 µM with MCF7 breast; 14.8 µM in the assay on TK-10 renal. Also, the TGI with UO-31 renal was 32 µM; in the assay on MOLT-4 leukemia, 7.64 µM.
With `COc1cc(/C=C2\Cc3ccccc3C2=O)cc(OC)c1OC`, the TGI in the assay on M14 melanoma, in the assay with UACC-62 melanoma, with SN12C renal, in the assay on TK-10 renal, in the assay with UO-31 renal and with K-562 leukemia was above 100 µM in each case. The compound also displayed a TGI in the assay on MOLT-4 leukemia above 100 µM.
As to `O=C(CC1SC(=Nc2ccccc2Cl)NC1=O)Nc1ccc(Cl)cc1` (stereo not given), the TGI in the assay with M14 melanoma, in the assay with UACC-62 melanoma, in the assay with SN12C renal, in the assay on TK-10 renal, in the assay with UO-31 renal and in the assay with K-562 leukemia was above 100 µM in each case.
For `C/C=C(\C)C(=O)N1c2ccccc2CC1c1c(C)[nH]c2ccccc12` (stereo not given), the TGI with M14 melanoma, in the assay with UACC-62 melanoma, with SN12C renal, in the assay with TK-10 renal, in the assay on UO-31 renal and in the assay with K-562 leukemia was above 100 µM each time. This compound gave a TGI in the assay on MOLT-4 leukemia above 100 µM.
